According to patent publication US8557763B2, “Synthetic peptides that enhance tight junction permeability” (Alba Therapeutics Corporation, priority 2007, dated 2013):
Where no end group is shown, it is not given here. [ ]: non-standard residue; d: D form. AllylGly = C=CC[C@H](N)C(=O)O

Columns and labels:
CaCo2 monolayers [1] = test: Lucifer Yellow (LY) permeability assay through CaCo2 monolayers; type: cell-based; parameters: key to Enhanced LY permeability: + indicates an enhancement of the permeability of the tight junctions were observed; − indicates no enhancement of permeability was observed; settings: CaCo2 monolayers, Lucifer Yellow flux
Text: (§1) Agonists of tight junctions can be identified by their ability to enhance the flux of compounds (e.g. ions, Lucifer Yellow) through a cell monolayer that comprises tight junctions; or by their ability to reduce TEER across a cell monolayer that comprises tight junctions. Treatment of CaCo2 monolayers with peptide FCIGRL (SEQ ID NO: 1) led to a 51-fold enhancement of Lucifer Yellow permeability through CaCo2 monolayers compared to vehicle alone.
(§2) Tight junction agonists can be identified and tested using the following method:
(§3) Determination of TEER and Lucifer Yellow Flux
(§4) Prepare Modified Hank's Balanced Salt Solution (MHBSS) by obtaining 1 L bottle of HBSS removing 10 ml of HBSS and replacing it with 10 ml HEPES buffer pH 7.0. Adjust pH to 7.4±0.1 using concentrated NaOH (10N).
(§5) Remove CaCo-2 cells from incubator, grown on 12-well, 3.0 μM, polycarbonate Transwell® filters (Corning) and record passage#, date cells seeded and age in days.
(§6) Aspirate cell culture medium from both the apical (AP) and basolateral (BL) compartments, replacing with 0.5 ml and 1.5 ml of MHBSS, respectively. Incubate cells at 37° C. for 30 minutes.
(§7) Aspirate solution from the apical compartment of each filter (n=3 per condition) and replace with 0.5 ml of control and test solutions containing Lucifer Yellow and test compound if appropriate.
(§8) Place all plates into incubator set at 37° C. (±0.2), 50 RPM (±5) for a total of 180 minutes.
At t=60, 120 and 180 minutes remove […] from each basolateral compartment and place it in a 96-well plate for Lucifer Yellow analysis, replace with 100 μl of MHBSS.
Make a Lucifer Yellow standard curve with the following dilutions (7500 μM, 3750 μM, 750 μM, 375 μM, 37.5 μM, 7.5 μM, 3.75 μM, 0.75 μM) and pipette 100 μL of each into a 96-well plate except for the first three standards mentioned above which require a 1:10 dilutions prior to transferring to the 96-well plate.
Harvest the remaining start solutions and what is left in each apical compartment into 1.5 ml vials. Freeze at −20° C. for future analysis.
Analyze each 96-well plate in a Tecan Spectra Fluor Plus using Magellan at 485 and 535 nm.
(§9) Cells: CaCo-2 cells passage 40-60 grown on Transwell® plates for 21-28 days
(§10) Culture Medium: DMEM supplemented with 10% fetal bovine serum, 1% NEAA, 1% Penn/Strep
(§11) Buffers: Hank's Balanced Salt Solution (HBSS) without calcium and magnesium
(§12) Flasks: 100×20 mm Tissue culture dish Falcon.
(§13) Plates: 12 well polycarbonate Transwell® filters; 0.3 uM pore size

CaCo2 monolayers [2] = test: Trans Epithelial Electric Resistance (TEER) across CaCo2 monolayers; type: cell-based; parameters: key to Reduced TEER: + indicates an enhancement of the permeability of the tight junctions were observed; − indicates no enhancement of permeability was observed; settings: CaCo2 monolayers
Text: as §1
Treatment of CaCo2 monolayers with peptide FCIGRL led to a 16-fold decrease in TEER across CaCo2 monolayers compared to vehicle alone.
as §2, §3, §4, §5, §6
Using the MilliCell®-ERS instrument (Millipore), measure and record the transepithelial electrical resistance (TEER) across each filter and record.
as §7, §8
At t=30, 60, 120 and 180 minutes, measure and record the transepithelial electrical resistance (TEER) across each filter using the MilliCell-ERS instrument.
as §9, §10, §11, §12, §13

Substance | Enhanced LY permeability (CaCo2 monolayers [1]) | Reduced TEER (CaCo2 monolayers [2])
53 (F[AllylGly]ISRL-NH2; N-terminus assumed; SMILES C=CC[C@H](NC(=O)[C@@H](N)Cc1ccccc1)C(=O)N[C@H](C(=O)N[C@@H](CO)C(=O)N[C@@H](CCCNC(=N)N)C(=O)N[C@@H](CC(C)C)C(N)=O)[C@@H](C)CC) [compound 53] | + | +
80 (F[AllylGly]IGRE-NH2; N-terminus assumed; SMILES C=CC[C@H](NC(=O)[C@@H](N)Cc1ccccc1)C(=O)N[C@H](C(=O)NCC(=O)N[C@@H](CCCNC(=N)N)C(=O)N[C@@H](CCC(=O)O)C(N)=O)[C@@H](C)CC) [compound 80] | + | +
90 (F[AllylGly]IGRV-NH2; N-terminus assumed; SMILES C=CC[C@H](NC(=O)[C@@H](N)Cc1ccccc1)C(=O)N[C@H](C(=O)NCC(=O)N[C@@H](CCCNC(=N)N)C(=O)N[C@H](C(N)=O)C(C)C)[C@@H](C)CC) [compound 90] | + | +
45 (F[AllylGly]IHRL-NH2; N-terminus assumed; SMILES C=CC[C@H](NC(=O)[C@@H](N)Cc1ccccc1)C(=O)N[C@H](C(=O)N[C@@H](Cc1c[nH]cn1)C(=O)N[C@@H](CCCNC(=N)N)C(=O)N[C@@H](CC(C)C)C(N)=O)[C@@H](C)CC) [compound 45] | + | +
26 (F[AllylGly]SGRL-NH2; N-terminus assumed; SMILES C=CC[C@H](NC(=O)[C@@H](N)Cc1ccccc1)C(=O)N[C@@H](CO)C(=O)NCC(=O)N[C@@H](CCCNC(=N)N)C(=O)N[C@@H](CC(C)C)C(N)=O) [compound 26] | + | +
82 (F[AllylGly]IGRY-NH2; N-terminus assumed; SMILES C=CC[C@H](NC(=O)[C@@H](N)Cc1ccccc1)C(=O)N[C@H](C(=O)NCC(=O)N[C@@H](CCCNC(=N)N)C(=O)N[C@@H](Cc1ccc(O)cc1)C(N)=O)[C@@H](C)CC) [compound 82] | + | +
30 (F[AllylGly]AGRL-NH2; N-terminus assumed; SMILES C=CC[C@H](NC(=O)[C@@H](N)Cc1ccccc1)C(=O)N[C@@H](C)C(=O)NCC(=O)N[C@@H](CCCNC(=N)N)C(=O)N[C@@H](CC(C)C)C(N)=O) [compound 30] | + | +
59 (F[AllylGly]IGGL-NH2; N-terminus assumed; SMILES C=CC[C@H](NC(=O)[C@@H](N)Cc1ccccc1)C(=O)N[C@H](C(=O)NCC(=O)NCC(=O)N[C@@H](CC(C)C)C(N)=O)[C@@H](C)CC) [compound 59] | + | +
77 (F[AllylGly]IGRA-NH2; N-terminus assumed; SMILES C=CC[C@H](NC(=O)[C@@H](N)Cc1ccccc1)C(=O)N[C@H](C(=O)NCC(=O)N[C@@H](CCCNC(=N)N)C(=O)N[C@@H](C)C(N)=O)[C@@H](C)CC) [compound 77] | + | −
73 (F[AllylGly]IGRH-NH2; N-terminus assumed; SMILES C=CC[C@H](NC(=O)[C@@H](N)Cc1ccccc1)C(=O)N[C@H](C(=O)NCC(=O)N[C@@H](CCCNC(=N)N)C(=O)N[C@@H](Cc1c[nH]cn1)C(N)=O)[C@@H](C)CC) [compound 73] | + | +
84 (F[AllylGly]IGRN-NH2; N-terminus assumed; SMILES C=CC[C@H](NC(=O)[C@@H](N)Cc1ccccc1)C(=O)N[C@H](C(=O)NCC(=O)N[C@@H](CCCNC(=N)N)C(=O)N[C@@H](CC(N)=O)C(N)=O)[C@@H](C)CC) [compound 84] | + | +
15 (W[AllylGly]IGRL-NH2; N-terminus assumed; SMILES C=CC[C@H](NC(=O)[C@@H](N)Cc1c[nH]c2ccccc12)C(=O)N[C@H](C(=O)NCC(=O)N[C@@H](CCCNC(=N)N)C(=O)N[C@@H](CC(C)C)C(N)=O)[C@@H](C)CC) [compound 15] | + | −
37 (F[AllylGly]NGRL-NH2; N-terminus assumed; SMILES C=CC[C@H](NC(=O)[C@@H](N)Cc1ccccc1)C(=O)N[C@@H](CC(N)=O)C(=O)NCC(=O)N[C@@H](CCCNC(=N)N)C(=O)N[C@@H](CC(C)C)C(N)=O) [compound 37] | + | +
18 (H[AllylGly]IGRL-NH2; N-terminus assumed; SMILES C=CC[C@H](NC(=O)[C@@H](N)Cc1c[nH]cn1)C(=O)N[C@H](C(=O)NCC(=O)N[C@@H](CCCNC(=N)N)C(=O)N[C@@H](CC(C)C)C(N)=O)[C@@H](C)CC) [compound 18] | − | −
76 (F[AllylGly]IGRF-NH2; N-terminus assumed; SMILES C=CC[C@H](NC(=O)[C@@H](N)Cc1ccccc1)C(=O)N[C@H](C(=O)NCC(=O)N[C@@H](CCCNC(=N)N)C(=O)N[C@@H](Cc1ccccc1)C(N)=O)[C@@H](C)CC) [compound 76] | + | +
6 (Q[AllylGly]IGRL-NH2; N-terminus assumed; SMILES C=CC[C@H](NC(=O)[C@@H](N)CCC(N)=O)C(=O)N[C@H](C(=O)NCC(=O)N[C@@H](CCCNC(=N)N)C(=O)N[C@@H](CC(C)C)C(N)=O)[C@@H](C)CC) [compound 6] | − | −
12 (Y[AllylGly]IGRL-NH2; N-terminus assumed; SMILES C=CC[C@H](NC(=O)[C@@H](N)Cc1ccc(O)cc1)C(=O)N[C@H](C(=O)NCC(=O)N[C@@H](CCCNC(=N)N)C(=O)N[C@@H](CC(C)C)C(N)=O)[C@@H](C)CC) [compound 12] | − | −
35 (F[AllylGly]RGRL-NH2; N-terminus assumed; SMILES C=CC[C@H](NC(=O)[C@@H](N)Cc1ccccc1)C(=O)N[C@@H](CCCNC(=N)N)C(=O)NCC(=O)N[C@@H](CCCNC(=N)N)C(=O)N[C@@H](CC(C)C)C(N)=O) [compound 35] | + | +
11 (V[AllylGly]IGRL-NH2; N-terminus assumed; SMILES C=CC[C@H](NC(=O)[C@@H](N)C(C)C)C(=O)N[C@H](C(=O)NCC(=O)N[C@@H](CCCNC(=N)N)C(=O)N[C@@H](CC(C)C)C(N)=O)[C@@H](C)CC) [compound 11] | − | −
43 (F[AllylGly]IPRL-NH2; N-terminus assumed; SMILES C=CC[C@H](NC(=O)[C@@H](N)Cc1ccccc1)C(=O)N[C@H](C(=O)N1CCC[C@H]1C(=O)N[C@@H](CCCNC(=N)N)C(=O)N[C@@H](CC(C)C)C(N)=O)[C@@H](C)CC) [compound 43] | − | −
85 (F[AllylGly]IGRM-NH2; N-terminus assumed; SMILES C=CC[C@H](NC(=O)[C@@H](N)Cc1ccccc1)C(=O)N[C@H](C(=O)NCC(=O)N[C@@H](CCCNC(=N)N)C(=O)N[C@@H](CCSC)C(N)=O)[C@@H](C)CC) [compound 85] | + | +
48 (F[AllylGly]IQRL-NH2; N-terminus assumed; SMILES C=CC[C@H](NC(=O)[C@@H](N)Cc1ccccc1)C(=O)N[C@H](C(=O)N[C@@H](CCC(N)=O)C(=O)N[C@@H](CCCNC(=N)N)C(=O)N[C@@H](CC(C)C)C(N)=O)[C@@H](C)CC) [compound 48] | + | +
